# What was measured:
# [1] = tested on: L1210 murine leukemia cells, cyclophosphamide-sensitive (/0); assay: In vitro soft agar colony-forming cytotoxicity assay, cyclophosphamide-sensitive L1210 cells; format: cell-based, mouse; set-up: unit not given here; settings: L1210 /0 (sensitive); 1-hour exposure, 99% cell kill
# Source text: (§1) A soft agar colony-forming assay according to the procedure of Chu and Fischer, Biochem. Pharmacol., 17, 753-767 (1968) was used and modified where necessary. Cultured mouse L1210 and P388 sensitive cells were purchased from EG&G Mason Research Institute, Tumor Bank, Worchester, Mass. Cultured cyclophosphamide resistant L1210 and P388 cells were obtained from Dr. Robert Struck of Southern Research Institute, Birmingham, Ala. Typically, the desired cells (2-3×10^6 cells/ml) in exponential growth and suspended in 6.5 ml of Fischer's medium (Gibco Lab., Grand Island, N.Y.) were divided into six groups (1 control and 5 treated groups) containing an equal number of cells in 1 ml. These cells were then treated with varying doses of drug (solution of perhydrooxazine in media or 20% ethanol-water), diluted with media to give a total volume of 10 ml, and incubated for one hour at 37° C. The cells were washed three times with 3 ml of supplemented Fischer's medium (containing 10% horse serum) by centrifuge (800×g), removal of media by suction, and resuspension of the pellet in media (5 ml). A 1-ml portion was used to determine the cell count with a Coulter counter. From the remainder, a 5-ml suspension of cells was prepared at a density of 10^5 cells/ml, and between 10^2 and 10^5 cells were placed on soft agar and incubated at 37° C. Colonies were counted after 10 days. The log of the surviving fraction was plotted vs. drug concentration and from this plot the LC99 was obtained. (By definition, the LC99 value represents the concentration of drug necessary to effect a 99% cell kill.)
# [2] = tested on: L1210 murine leukemia cells, cyclophosphamide-resistant (/CP); assay: In vitro soft agar colony-forming cytotoxicity assay, cyclophosphamide-resistant L1210 cells; format: cell-based, mouse; set-up: LC99: unit not given here; settings: for LC99: L1210 /CP (cyclophosphamide-resistant), 1-hour exposure, 99% cell kill; for RF, resistance factor = ratio of LC99 in resistant/sensitive cells: L1210, 60 min
# Source text: as §1
# [3] = tested on: P388 murine leukemia cells, cyclophosphamide-sensitive (/0); assay: In vitro soft agar colony-forming cytotoxicity assay, cyclophosphamide-sensitive P388 cells; format: cell-based, mouse; set-up: unit not given here; settings: P388 /0 (sensitive); 1-hour exposure, 99% cell kill
# Source text: as §1
# [4] = tested on: P388 murine leukemia cells, cyclophosphamide-resistant (/CP); assay: In vitro soft agar colony-forming cytotoxicity assay, cyclophosphamide-resistant P388 cells; format: cell-based, mouse; set-up: LC99: unit not given here; settings: for LC99: P388 /CP (cyclophosphamide-resistant), 1-hour exposure, 99% cell kill; for RF, resistance factor = ratio of LC99 in resistant/sensitive cells: P388, 60 min
# Source text: as §1
# L1210 tumor cells = assay: In vivo antitumor activity, survival of L1210 bearing mice; set-up: species or system mouse (male B6 D2 F1); settings: for Long Term Survivors: experiment terminated on day 30; for response vs control in vivo at 17 µmol/kg / response vs control in vivo at 34 µmol/kg / response vs control in vivo at 51 µmol/kg / response vs control in vivo at 68 µmol/kg: Mus musculus, L1210, ip, read-out: Survival of L1210 bearing mice - % T/C × 100; for response vs control in vivo at 17 µmol/kg: 17 umol/kg; for toxicity compared with the reference activated cyclophosphamide: higher doses
# Protocol: (§2) Typically 4 groups of 10 male B6 D2 F1 mice (Jackson Breeding Lab., Bar Harbor Me) were injected i.p. with 1×10^5 L1210 tumor cells. Twenty four hours after injection three groups were treated (i.p. injection) with varying doses of drug, and the fourth group received the vehicle alone. The mice were observed daily and death dates were recorded. The experiment was terminated on day 30 and median survival time (days) and % T/C (ratio of median survival time of treated group divided by the […] survival time of the control group) was calculated. The drug was delivered using either an isotonic saline solution or a carboxymethyl cellulose suspension depending on the solubility of the drug.
# CP-resistant L1210 cells = assay: In vivo antitumor activity, survival of mice bearing CP-resistant L1210 cells; set-up: species or system mouse (male B6 D2 F1); settings: for Survival of L1210 bearing mice - % T/C × 100: CP-resistant L1210, i.p.
# Protocol: as §2
Compound,LC99 [1],LC99 [2],"RF, resistance factor = ratio of LC99 in resistant/sensitive cells [2]",LC99 [3],LC99 [4],"RF, resistance factor = ratio of LC99 in resistant/sensitive cells [4]","Long Term Survivors (L1210 tumor cells; 68 umol/kg, i.p.)",response vs control in vivo at 17 µmol/kg (L1210 tumor cells; i.p.),"response vs control in vivo at 34 µmol/kg (L1210 tumor cells; 34 umol/kg, i.p.)","response vs control in vivo at 51 µmol/kg (L1210 tumor cells; 51 umol/kg, i.p.)","response vs control in vivo at 68 µmol/kg (L1210 tumor cells; 68 umol/kg, i.p.)",antitumor activity in L1210 leukemic mice (L1210 tumor cells; all doses tested),toxicity compared with the reference activated cyclophosphamide (L1210 tumor cells),"Long Term Survivors (L1210 tumor cells; 51 umol/kg, i.p.)",further results
"O=P1(N(CCCl)CCCl)NC(OO)CC(c2ccncc2)O1 (centres unmarked) [Compound 9, 4-Hydroperoxy-6-(4-pyridyl)cyclophosphamide]",53,57,1.1,44,27,0.6,1/6,131%,150%,164%,193%,highly active at all doses tested,less toxic at higher doses than the reference activated cyclophosphamide,,Survival of L1210 bearing mice - % T/C × 100 (CP-resistant L1210 cells; 17 umol/kg): 119%; Survival of L1210 bearing mice - % T/C × 100 (CP-resistant L1210 cells; 34 umol/kg): 131%; Survival of L1210 bearing mice - % T/C × 100 (CP-resistant L1210 cells; 51 umol/kg): 138%; Survival of L1210 bearing mice - % T/C × 100 (CP-resistant L1210 cells; 68 umol/kg): 150%; survival / lifespan of mice bearing cyclophosphamide resistant L1210 leukemia (CP-resistant L1210 cells): prolongs the survival of these mice bearing the drug-resistant leukemia at all doses tested
"O=P1(N(CCCl)CCCl)NC(OO)CC(c2ccc(F)cc2)O1 (centres unmarked) [Compound 7, 4-hydroperoxy-6-p-fluorophenylcyclophosphamide]",7,8,1.1,6,3,0.5,1/6,,163%,188%,63%,,,1/6,antitumor activity in L1210 leukemic mice (L1210 tumor cells; lower doses tested): highly active at the lower doses tested
"O=P1(N(CCCl)CCCl)NC(OO)CC(c2cccnc2)O1 (centres unmarked) [Compound 8, 4-hydroxyperoxy-6-(3-pyridyl)cyclophosphamide]",36,56,1.6,33,24,0.7,,,131%,69%,63%,,,,
"Cc1ccc(C2CC(OO)NP(=O)(N(CCCl)CCCl)O2)cc1 (centres unmarked) [Compound 6, 4-Hydroperoxy-6-p-tolylcyclophosphamide]",5,6,1.2,3,3,1.0,1/6,,150%,175%,180%,highly active at all doses tested,less toxic at higher doses than the reference activated cyclophosphamide,1/6,
"O=[N+]([O-])c1ccc(C2CC(OO)NP(=O)(N(CCCl)CCCl)O2)cc1 (centres unmarked) [Compound 5, 4-hydroperoxy-6-p-nitrophenylcyclophosphamide]",8,8,1.0,7,3,0.4,4/6,,163%,194%,225%,highly active at all doses tested,less toxic at higher doses than the reference activated cyclophosphamide,2/6,"Long Term Survivors (L1210 tumor cells; 34 umol/kg, i.p.): 1/6"
"CC(C)C1CC(OO)NP(=O)(N(CCCl)CCCl)O1 (centres unmarked) [Compound 2, 4-hydroperoxy-6-isopropylcyclophosphamide]",105,115,1.1,86,61,0.7,,,,,,,,,
"CC1CC(OO)NP(=O)(N(CCCl)CCCl)O1 (centres unmarked) [Compound 1, 4-hydroperoxy-6-methylcyclophosphamide]",32,177,5.5,26,69,2.7,,,138%,56%,50%,,,,"Long Term Survivors (L1210 tumor cells; 34 umol/kg, i.p.): 2/6"
"O=P1(N(CCCl)CCCl)NC(OO)CCO1 (centres unmarked) [Ref, reference compound]",8,141,17,6,60,10,,136%,194%,50%,,,,,"toxicity (CP-resistant L1210 cells; 51 umol/kg dose, mice bearing cyclophosphamide resistant L1210): toxicity is apparent at the 51 umol/kg dose; Survival of L1210 bearing mice - % T/C × 100 (CP-resistant L1210 cells; 17 umol/kg): 112%; Survival of L1210 bearing mice - % T/C × 100 (CP-resistant L1210 cells; 34 umol/kg): 100%; Survival of L1210 bearing mice - % T/C × 100 (CP-resistant L1210 cells; 51 umol/kg): 75%; survival / lifespan of mice bearing cyclophosphamide resistant L1210 leukemia (CP-resistant L1210 cells): no significant increase in lifespan is observed"
"O=P1(N(CCCl)CCCl)NC(OO)CC(CCc2ccccc2)O1 (centres unmarked) [Compound 3, 4-hydroperoxy-6-phenethylcyclophosphamide]",11,9,1.1,9,5,0.6,,,106%,25%,,,,,
"O=P1(N(CCCl)CCCl)NC(OO)CC(c2ccccc2)O1 (centres unmarked) [Compound 4, 4-hydroperoxy-6-phenylcyclophosphamide]",17,15,0.9,11,7,0.6,,117%,144%,,,,,,"Survival of L1210 bearing mice - % T/C × 100 (L1210 tumor cells; 51 umol/kg, i.p.): toxic"

# — patent US5190929A, “Cyclophosphamide analogs useful as anti-tumor agents” (Research Corporation Technologies, Inc., priority 1988, dated 1993)
